Results as given in ChEMBL document CHEMBL4507304, “Data for DCP probe TP-021” (2021).

What was measured:
[1] = target: Serine/threonine-protein kinase PAK 3 (Homo sapiens) (UniProt O75914); conditions: Compound concentration 1000.0 nM
[2] = target: 5-hydroxytryptamine receptor 3A (Homo sapiens) (UniProt P46098); conditions: Compound concentration 10.0 uM
[3] = target: Tyrosine-protein kinase BTK (Homo sapiens) (UniProt Q06187); conditions: Compound concentration 1000.0 nM
[4] = target: Wee1-like protein kinase 2 (Homo sapiens) (UniProt P0C1S8); conditions: Compound concentration 1000.0 nM
[5] = target: Ephrin type-A receptor 2 (Homo sapiens) (UniProt P29317); conditions: Compound concentration 1000.0 nM
[6] = target: Platelet-derived growth factor receptor beta (Homo sapiens) (UniProt P09619); conditions: Compound concentration 1000.0 nM
[7] = target: Phosphatidylinositol 5-phosphate 4-kinase type-2 gamma (Homo sapiens) (UniProt Q8TBX8); conditions: Compound concentration 1000.0 nM
Chain of Phosphatidylinositol 5-phosphate 4-kinase type-2 gamma (Homo sapiens) (Q8TBX8 whole entry): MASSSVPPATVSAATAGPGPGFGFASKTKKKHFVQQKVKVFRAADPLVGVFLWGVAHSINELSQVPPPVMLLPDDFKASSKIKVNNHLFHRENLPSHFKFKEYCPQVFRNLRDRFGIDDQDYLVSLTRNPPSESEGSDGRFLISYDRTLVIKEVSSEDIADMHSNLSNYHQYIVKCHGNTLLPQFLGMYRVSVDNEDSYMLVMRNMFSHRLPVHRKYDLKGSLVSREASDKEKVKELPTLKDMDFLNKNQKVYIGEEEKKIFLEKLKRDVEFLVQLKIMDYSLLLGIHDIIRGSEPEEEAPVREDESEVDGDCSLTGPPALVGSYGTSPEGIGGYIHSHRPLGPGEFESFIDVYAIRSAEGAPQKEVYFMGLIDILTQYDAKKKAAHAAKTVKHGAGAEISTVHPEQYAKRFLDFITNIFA

[8] = target: Calcium/calmodulin-dependent protein kinase kinase 1 (Homo sapiens) (UniProt Q8N5S9); conditions: Compound concentration 1000.0 nM
[9] = target: Inhibitor of nuclear factor kappa-B kinase subunit beta (Homo sapiens) (UniProt O14920); conditions: Compound concentration 1000.0 nM
[10] = target: Mitogen-activated protein kinase kinase kinase 4 (Homo sapiens) (UniProt Q9Y6R4); conditions: Compound concentration 1000.0 nM
[11] = target: Dual serine/threonine and tyrosine protein kinase (Homo sapiens) (UniProt Q6XUX3); conditions: Compound concentration 1000.0 nM
[12] = target: Proto-oncogene tyrosine-protein kinase receptor Ret (Homo sapiens) (UniProt P07949); conditions: Compound concentration 1000.0 nM
[13] = target: Histamine H2 receptor (Homo sapiens) (UniProt P25021); conditions: Compound concentration 10.0 uM
[14] = target: LIM domain kinase 2 (Homo sapiens) (UniProt P53671); conditions: Compound concentration 1000.0 nM
[15] = target: Cyclin-dependent kinase 19 (Homo sapiens) (UniProt Q9BWU1); conditions: Compound concentration 1000.0 nM
[16] = target: ALK tyrosine kinase receptor (Homo sapiens) (UniProt Q9UM73); conditions: Compound concentration 1000.0 nM
[17] = target: Serine/threonine-protein kinase PAK 4 (Homo sapiens) (UniProt O96013); conditions: Compound concentration 1000.0 nM
Chain of Serine/threonine-protein kinase PAK 4 (Homo sapiens) (O96013 whole entry, looked up): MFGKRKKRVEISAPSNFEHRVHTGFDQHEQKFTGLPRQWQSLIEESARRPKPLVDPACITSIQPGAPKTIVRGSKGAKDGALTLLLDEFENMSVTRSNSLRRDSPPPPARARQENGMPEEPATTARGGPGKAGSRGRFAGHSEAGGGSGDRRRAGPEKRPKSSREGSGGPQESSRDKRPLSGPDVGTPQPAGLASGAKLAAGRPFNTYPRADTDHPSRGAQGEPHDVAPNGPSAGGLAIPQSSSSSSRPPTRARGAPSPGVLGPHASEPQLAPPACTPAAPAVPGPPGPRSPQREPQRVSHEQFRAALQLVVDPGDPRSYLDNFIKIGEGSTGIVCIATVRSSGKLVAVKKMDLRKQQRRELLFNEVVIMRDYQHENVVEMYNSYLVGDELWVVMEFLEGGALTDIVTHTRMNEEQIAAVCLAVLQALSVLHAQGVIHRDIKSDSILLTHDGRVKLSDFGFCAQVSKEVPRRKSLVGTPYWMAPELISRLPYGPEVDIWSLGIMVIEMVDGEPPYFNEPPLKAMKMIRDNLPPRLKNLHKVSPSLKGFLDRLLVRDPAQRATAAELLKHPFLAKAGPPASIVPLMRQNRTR

[18] = target: Ribosomal protein S6 kinase alpha-5 (Homo sapiens) (UniProt O75582); conditions: Compound concentration 1000.0 nM
[19] = target: Tyrosine-protein kinase Srms (Homo sapiens) (UniProt Q9H3Y6); conditions: Compound concentration 1000.0 nM
Chain of Tyrosine-protein kinase Srms (Homo sapiens) (Q9H3Y6 whole entry): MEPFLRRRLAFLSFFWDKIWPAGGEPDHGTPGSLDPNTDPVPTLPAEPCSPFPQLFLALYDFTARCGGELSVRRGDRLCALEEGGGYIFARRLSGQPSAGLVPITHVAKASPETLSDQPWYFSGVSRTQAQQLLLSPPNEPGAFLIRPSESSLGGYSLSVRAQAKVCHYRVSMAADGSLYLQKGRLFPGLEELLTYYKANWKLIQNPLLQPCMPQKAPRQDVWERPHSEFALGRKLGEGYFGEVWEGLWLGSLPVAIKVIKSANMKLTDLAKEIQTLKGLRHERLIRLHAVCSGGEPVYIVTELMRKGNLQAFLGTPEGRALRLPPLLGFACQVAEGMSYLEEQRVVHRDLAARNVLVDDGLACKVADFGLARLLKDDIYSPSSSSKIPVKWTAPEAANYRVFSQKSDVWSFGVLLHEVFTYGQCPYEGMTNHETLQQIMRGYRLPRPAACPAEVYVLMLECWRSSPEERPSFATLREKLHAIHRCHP

[20] = target: RAC-beta serine/threonine-protein kinase (Homo sapiens) (UniProt P31751); conditions: Compound concentration 1000.0 nM
[21] = target: Tyrosine-protein kinase JAK2 (Homo sapiens) (UniProt O60674); conditions: Compound concentration 1000.0 nM
[22] = target: Serine/threonine-protein kinase Nek9 (Homo sapiens) (UniProt Q8TD19); conditions: Compound concentration 1000.0 nM
[23] = target: Tyrosine-protein kinase ZAP-70 (Homo sapiens) (UniProt P43403); conditions: Compound concentration 1000.0 nM
[24] = target: 5'-AMP-activated protein kinase catalytic subunit alpha-1 (Homo sapiens) (UniProt Q13131); conditions: Compound concentration 1000.0 nM
[25] = target: Serine/threonine-protein kinase 10 (Homo sapiens) (UniProt O94804); conditions: Compound concentration 1000.0 nM
[26] = target: Cyclin-dependent kinase 5 (Homo sapiens) (UniProt Q00535); conditions: Compound concentration 1000.0 nM
Chain of Cyclin-dependent kinase 5 (Homo sapiens) (Q00535 whole entry, looked up, the tested form may be a part): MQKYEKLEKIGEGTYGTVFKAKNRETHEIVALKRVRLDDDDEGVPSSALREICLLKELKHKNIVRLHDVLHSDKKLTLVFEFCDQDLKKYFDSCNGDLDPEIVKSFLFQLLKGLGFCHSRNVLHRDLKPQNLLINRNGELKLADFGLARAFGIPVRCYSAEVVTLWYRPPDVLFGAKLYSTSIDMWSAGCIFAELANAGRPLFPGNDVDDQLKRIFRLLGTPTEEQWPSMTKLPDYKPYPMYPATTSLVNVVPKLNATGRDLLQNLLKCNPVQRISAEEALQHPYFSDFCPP

[27] = target: Discoidin domain-containing receptor 2 (Homo sapiens) (UniProt Q16832); conditions: Compound concentration 1000.0 nM
Chain of Discoidin domain-containing receptor 2 (Homo sapiens) (Q16832 whole entry, the tested form may be a part): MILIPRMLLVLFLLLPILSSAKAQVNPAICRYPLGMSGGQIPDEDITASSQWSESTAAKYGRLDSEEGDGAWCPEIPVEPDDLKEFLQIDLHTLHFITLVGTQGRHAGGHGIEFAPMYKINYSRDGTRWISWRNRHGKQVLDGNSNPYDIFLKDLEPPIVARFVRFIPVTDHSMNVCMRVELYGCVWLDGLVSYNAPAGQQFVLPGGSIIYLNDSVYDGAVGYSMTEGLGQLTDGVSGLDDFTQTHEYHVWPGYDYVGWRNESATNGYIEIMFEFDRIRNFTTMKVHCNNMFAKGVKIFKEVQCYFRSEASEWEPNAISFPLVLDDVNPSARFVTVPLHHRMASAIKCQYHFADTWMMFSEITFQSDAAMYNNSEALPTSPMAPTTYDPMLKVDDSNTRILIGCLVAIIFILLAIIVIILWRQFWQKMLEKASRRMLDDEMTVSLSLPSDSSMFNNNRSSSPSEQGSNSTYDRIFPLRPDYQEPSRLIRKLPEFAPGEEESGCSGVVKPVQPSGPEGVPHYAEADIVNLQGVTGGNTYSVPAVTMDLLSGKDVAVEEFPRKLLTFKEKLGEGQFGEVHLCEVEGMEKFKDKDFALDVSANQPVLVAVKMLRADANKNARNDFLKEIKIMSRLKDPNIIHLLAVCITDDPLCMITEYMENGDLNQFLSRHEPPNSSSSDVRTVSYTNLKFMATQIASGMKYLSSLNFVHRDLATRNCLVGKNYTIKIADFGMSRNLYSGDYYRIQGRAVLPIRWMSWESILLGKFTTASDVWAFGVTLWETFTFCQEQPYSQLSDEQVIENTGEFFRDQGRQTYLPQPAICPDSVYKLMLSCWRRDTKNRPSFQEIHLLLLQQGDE

[28] = target: TGF-beta receptor type-2 (Homo sapiens) (UniProt P37173); conditions: Compound concentration 1000.0 nM
[29] = target: STE20/SPS1-related proline-alanine-rich protein kinase (Homo sapiens) (UniProt Q9UEW8); conditions: Compound concentration 1000.0 nM
[30] = target: Cyclin-dependent kinase 11B (Homo sapiens) (UniProt P21127); conditions: Compound concentration 1000.0 nM
[31] = system: Receptor-type tyrosine-protein kinase FLT3 (Homo sapiens), P36888 [N841I]; conditions: Compound concentration 1000.0 nM
[32] = target: Homeodomain-interacting protein kinase 3 (Homo sapiens) (UniProt Q9H422); conditions: Compound concentration 1000.0 nM
Chain of Homeodomain-interacting protein kinase 3 (Homo sapiens) (Q9H422 whole entry, looked up): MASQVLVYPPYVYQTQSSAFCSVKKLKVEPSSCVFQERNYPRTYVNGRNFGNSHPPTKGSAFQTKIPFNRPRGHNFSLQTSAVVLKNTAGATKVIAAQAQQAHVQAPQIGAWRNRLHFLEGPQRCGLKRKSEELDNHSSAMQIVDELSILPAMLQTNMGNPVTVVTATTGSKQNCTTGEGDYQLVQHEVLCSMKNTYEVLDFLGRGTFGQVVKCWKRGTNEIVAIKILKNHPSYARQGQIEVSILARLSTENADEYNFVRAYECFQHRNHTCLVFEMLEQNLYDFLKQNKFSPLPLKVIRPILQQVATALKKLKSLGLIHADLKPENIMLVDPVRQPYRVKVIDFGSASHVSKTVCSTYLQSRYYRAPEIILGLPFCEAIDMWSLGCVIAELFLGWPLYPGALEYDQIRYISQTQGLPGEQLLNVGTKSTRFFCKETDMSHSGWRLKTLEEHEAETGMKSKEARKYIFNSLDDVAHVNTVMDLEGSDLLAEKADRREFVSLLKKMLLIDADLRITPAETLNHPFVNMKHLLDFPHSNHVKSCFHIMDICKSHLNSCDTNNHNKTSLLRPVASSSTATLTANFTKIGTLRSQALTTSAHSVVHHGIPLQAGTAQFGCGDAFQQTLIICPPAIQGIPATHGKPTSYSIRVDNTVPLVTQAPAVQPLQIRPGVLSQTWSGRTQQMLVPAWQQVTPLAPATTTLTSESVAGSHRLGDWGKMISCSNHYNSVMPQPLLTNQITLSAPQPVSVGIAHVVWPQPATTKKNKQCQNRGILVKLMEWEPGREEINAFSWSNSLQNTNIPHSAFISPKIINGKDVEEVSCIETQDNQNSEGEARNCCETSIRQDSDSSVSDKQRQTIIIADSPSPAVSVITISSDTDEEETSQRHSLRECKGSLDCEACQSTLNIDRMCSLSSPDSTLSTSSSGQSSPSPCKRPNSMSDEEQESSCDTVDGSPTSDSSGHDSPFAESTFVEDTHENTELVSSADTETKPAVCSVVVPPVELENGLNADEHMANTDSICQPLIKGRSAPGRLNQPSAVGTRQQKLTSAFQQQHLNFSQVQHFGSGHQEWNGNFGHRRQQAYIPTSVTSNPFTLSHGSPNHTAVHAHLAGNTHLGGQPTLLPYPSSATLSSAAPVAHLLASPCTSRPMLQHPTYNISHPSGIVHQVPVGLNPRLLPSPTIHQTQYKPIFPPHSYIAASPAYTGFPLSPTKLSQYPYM

[33] = target: Dual specificity tyrosine-phosphorylation-regulated kinase 2 (Homo sapiens) (UniProt Q92630); conditions: Compound concentration 1000.0 nM
[34] = target: Cyclin-dependent kinase 16 (Homo sapiens) (UniProt Q00536); conditions: Compound concentration 1000.0 nM
[35] = system: Proto-oncogene tyrosine-protein kinase receptor Ret (Homo sapiens), P07949 [V804M]; conditions: Compound concentration 1000.0 nM
[36] = target: BMP-2-inducible protein kinase (Homo sapiens) (UniProt Q9NSY1); conditions: Compound concentration 1000.0 nM
Chain of BMP-2-inducible protein kinase (Homo sapiens) (Q9NSY1 whole entry, looked up): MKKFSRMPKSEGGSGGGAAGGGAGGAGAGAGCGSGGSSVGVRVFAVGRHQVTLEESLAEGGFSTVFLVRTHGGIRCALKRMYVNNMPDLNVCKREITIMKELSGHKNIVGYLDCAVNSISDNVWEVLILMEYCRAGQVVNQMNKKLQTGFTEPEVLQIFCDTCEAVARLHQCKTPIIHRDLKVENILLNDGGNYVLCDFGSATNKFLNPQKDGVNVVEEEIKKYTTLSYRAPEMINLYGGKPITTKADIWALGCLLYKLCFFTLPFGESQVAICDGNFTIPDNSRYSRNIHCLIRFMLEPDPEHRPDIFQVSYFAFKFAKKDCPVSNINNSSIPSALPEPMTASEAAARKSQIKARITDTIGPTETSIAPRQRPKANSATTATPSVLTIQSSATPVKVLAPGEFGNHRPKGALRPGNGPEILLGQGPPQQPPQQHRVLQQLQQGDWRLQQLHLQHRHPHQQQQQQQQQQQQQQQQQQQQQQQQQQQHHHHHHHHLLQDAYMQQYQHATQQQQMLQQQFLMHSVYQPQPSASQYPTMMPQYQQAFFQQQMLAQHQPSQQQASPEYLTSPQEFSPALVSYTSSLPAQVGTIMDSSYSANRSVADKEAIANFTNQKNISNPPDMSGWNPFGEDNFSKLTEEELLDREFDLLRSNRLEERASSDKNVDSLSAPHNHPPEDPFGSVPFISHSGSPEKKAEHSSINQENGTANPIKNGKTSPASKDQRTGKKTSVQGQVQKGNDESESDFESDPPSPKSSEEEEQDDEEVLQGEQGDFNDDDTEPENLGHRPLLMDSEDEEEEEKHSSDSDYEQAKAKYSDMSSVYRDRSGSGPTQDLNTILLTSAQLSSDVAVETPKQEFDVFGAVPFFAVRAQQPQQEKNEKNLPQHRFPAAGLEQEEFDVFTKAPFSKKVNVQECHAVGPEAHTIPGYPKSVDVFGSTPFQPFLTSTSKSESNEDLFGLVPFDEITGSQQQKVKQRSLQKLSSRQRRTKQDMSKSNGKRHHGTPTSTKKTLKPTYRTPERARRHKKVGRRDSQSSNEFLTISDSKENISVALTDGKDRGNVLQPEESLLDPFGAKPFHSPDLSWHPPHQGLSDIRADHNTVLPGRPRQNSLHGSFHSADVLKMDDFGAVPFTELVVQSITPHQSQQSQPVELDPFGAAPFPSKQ

[37] = target: Mast/stem cell growth factor receptor Kit (Homo sapiens) (UniProt P10721); conditions: Compound concentration 1000.0 nM
[38] = target: Mitogen-activated protein kinase kinase kinase kinase 5 (Homo sapiens) (UniProt Q9Y4K4); conditions: Compound concentration 1000.0 nM
[39] = target: 3-phosphoinositide-dependent protein kinase 1 (Homo sapiens) (UniProt O15530); conditions: Compound concentration 1000.0 nM
[40] = system: Mast/stem cell growth factor receptor Kit (Homo sapiens), P10721 [V559D,V654A]; conditions: Compound concentration 1000.0 nM
[41] = target: Vascular endothelial growth factor receptor 3 (Homo sapiens) (UniProt P35916); conditions: Compound concentration 1000.0 nM
[42] = target: Tyrosine-protein kinase Lyn (Homo sapiens) (UniProt P07948); conditions: Compound concentration 1000.0 nM
[43] = target: Mu-type opioid receptor (Homo sapiens) (UniProt P35372); conditions: Compound concentration 10.0 uM
[44] = target: Rho-associated protein kinase 2 (Homo sapiens) (UniProt O75116); conditions: Compound concentration 1000.0 nM

O=C1CCc2cc(Nc3cc(OC4CCOCC4)c([N+](=O)[O-])cc3Cl)ccc2N1
inactive: residual activity [1] 100% | inhibition [2] 4.05% | residual activity [3] 100% | residual activity [4] 96% | residual activity [5] 75% | residual activity [6] 97% | residual activity [7] 100% | residual activity [8] 100% | residual activity [9] 100% | residual activity [10] 85% | residual activity [11] 90% | residual activity [12] 89% | inhibition [13] 20.6% | residual activity [14] 100% | residual activity [15] 72% | residual activity [16] 82% | residual activity [17] 100% | residual activity [18] 86% | residual activity [19] 82% | residual activity [20] 82% | residual activity [21] 100% | residual activity [22] 80% | residual activity [23] 91% | residual activity [24] 100% | residual activity [25] 100% | residual activity [26] 97% | residual activity [27] 100% | residual activity [28] 98% | residual activity [29] 100% | residual activity [30] 98% | residual activity [31] 100% | residual activity [32] 91% | residual activity [33] 97% | residual activity [34] 88% | residual activity [35] 100% | residual activity [36] 100% | residual activity [37] 99% | residual activity [38] 87% | residual activity [39] 100% | residual activity [40] 92% | residual activity [41] 97% | residual activity [42] 93% | inhibition [43] 1.31% | residual activity [44] 100%

N#Cc1ccc(Nc2ccc3[nH]c(=O)[nH]c3c2)c(Cl)c1
inactive: residual activity [1] 100% | inhibition [2] 1.33% | residual activity [3] 100% | residual activity [4] 100% | residual activity [5] 84% | residual activity [6] 100% | residual activity [7] 100% | residual activity [8] 100% | residual activity [9] 89% | residual activity [10] 95% | residual activity [11] 75% | residual activity [12] 97% | inhibition [13] 2.26% | residual activity [14] 100% | residual activity [15] 77% | residual activity [16] 100% | residual activity [17] 92% | residual activity [18] 100% | residual activity [19] 100% | residual activity [20] 89% | residual activity [21] 100% | residual activity [22] 96% | residual activity [23] 90% | residual activity [24] 100% | residual activity [25] 100% | residual activity [26] 100% | residual activity [27] 100% | residual activity [28] 100% | residual activity [29] 100% | residual activity [30] 100% | residual activity [31] 77% | residual activity [32] 94% | residual activity [33] 85% | residual activity [34] 100% | residual activity [35] 93% | residual activity [36] 91% | residual activity [37] 100% | residual activity [38] 77% | residual activity [39] 97% | residual activity [40] 96% | residual activity [41] 100% | residual activity [42] 78% | inhibition [43] 0.37% | residual activity [44] 100%
